Laboratory results as given in US20090048461A1, “Regulators of Bacterial Signalling Pathways” (Biosignal Limited, priority 2004, published 2009).

Assays:
Staphylococcus aureus = experiment: Growth of Staphylococcus aureus in sidearm flasks (absorbance 610 nm); type: cell-based
Description: Compounds 122 and 123 were tested against growth of Staphylococcus aureus. The experiments were performed in sidearm flasks and the growth was measured at 610 nm for 12 hours. Hundred μl of an overnight culture was added to 10 ml of growth medium. Nutrient Broth, containing furanones at concentrations 10 and 25 μg/ml. The bacteria were incubated at 37° C.

[1] = tested on: Pseudomonas aeruginosa (PA01 DO); experiment: Attachment of Pseudomonas aeruginosa (PA01 DO), crystal violet, microtiter plate; type: cell-based; conditions: no concentration stated
Description: The experiments were performed in 96 wells microtiter plates using a volume of 200 μl. The growth medium was M9 and the plates were incubated at 37° C. One % of overnight inoculum was used and the concentrations of the compounds to be tested were 25 and 50 μg/ml. The attachment of the cells were monitored at the endpoint of the experiment which was after 24 hrs. The cells were stained with crystal violet and the absorbance was measured at 595 nm. Reduction in attachment was measured against the control (PAO1 Do ETO ) set at 100%.

[2] = tested on: V. harveyi reporter strain BB170 Al-2 bioluminescence; experiment: V. harveyi bioassay for the detection of Al-2 activity (bioluminescence); type: cell-based, Vibrio harveyi; conditions: concentration of 50 ug/ml
Description: The V. harveyi bioassay was performed as described previously (Surette and Bassler, 1998). The V. harveyi reporter strain BB170 was grown for 16 hours at 30° C. with shaking in AB medium. Cells were diluted 1:5,000 into 30° C. prewarmed AB medium and 90 ul of the diluted suspension was added to wells containing supernatant. Compounds to be tested were added to the wells to achieve the desired final concentrations and the final volume in each well was adjusted with sterile medium to 100 ul. Ten ul of V. harveyi BB152 (Al-1−, Al-2+) supernatant was used as a positive control and 10 ul of E. coli DH5α supernatant or sterile media was used as a negative control. […] The microtiter plates were incubated at 30° C. with shaking at 175 rpm. Hourly determinations of the total luminescence were quantified using the chemiluminescent setting on a Wallac (Gaithersburg, Md.) model 1450 Microbeta Plus liquid scintillation counter. The V. harveyi cell density was monitored by the use of a microplate reader (Bio-Rad, Hercules, Calif.). Activity is reported as the percentage of activity obtained from V. harveyi BB152 cell-free supernatant. While the absolute values of luminescence varied considerably between experiments, the pattern of results obtained was reproducible.

[3] = tested on: two-component signal transduction systems (Taz system); experiment: Taz-1 assay (two-component signal transduction, beta-galactosidase activity); type: cell-based, E. coli RU1012 (pYT0301); conditions: for reduction of beta-galactosidase activity: 3 mM aspartate, 4 hours; for inhibition of two-component signal transduction systems: no concentration stated
Description: The Taz-assay carried out according to the method of Jin and Inouyc (1993) with the following alterations. E. coli RU1012 (pYT0301) were grown overnight in M9 medium at 37° C. supplemented with 100 ug/ml ampicillin and 50 ug/ml kanamycin. This overnight culture was then used to inoculate 50 ml M9 medium in side-arm flasks which were then incubated at 37° C. and shaken at 180 rpm. The OD610 of the growing cultures was monitored regularly and when the OD610=0.2 the cultures were placed on ice […] to give a final concentration of 3 mM (aspartate stock solution made up in M9 salts).
The test compound or mixtures of compounds were dissolved in ethanol and added to cultures to give the required final concentrations. Negative controls were prepared with equal volumes of ethanol. Cultures were then placed in a 37° C. incubator and shaken for 4 hours (OD610 approximately 0.7) before being removed and put on ice. Samples were then removed for beta-galactosidase assays carried out according to the method of Miller (1972). Aspartate (the natural inducer of the Taz system) was used as a positive control at a concentration of 3 mmolar.

Porphyromonas canoris [4] = experiment: Growth of Porphyromonas canoris (Example 9); type: cell-based; conditions: 50 μg/ml; BHI, 24 hrs
Description: (§1) The experiments were performed in 96 well microtiter plates using a volume of 100 μl. The growth medium was BHI and the plates were incubated at 37° C. One % of overnight inoculum was used and the concentration of the compound to be tested was 50 μg/ml. Both growth and attachment of the cells were monitored at the end point of the experiments which was and after 24 hrs with P. canoris. The cells were stained with crystal violet and the absorbance was measured at 595 nm.

Porphyromonas canoris [5] = experiment: Attachment of Porphyromonas canoris (Example 9); type: cell-based; conditions: 50 μg/ml; BHI, 24 hrs
Description: as §1

Pseudomonas aeruginosa [6] = experiment: Growth of Pseudomonas aeruginosa (Example 10); type: cell-based; conditions: 50 μg/ml; 1:9 dilution of TBY medium, 6 hrs
Description: as §1
(§2) As Example 9, but the used medium was a 1:9 dilution of TBY medium and the incubation time was 6 hrs.

Pseudomonas aeruginosa [7] = experiment: Attachment of Pseudomonas aeruginosa (Example 10); type: cell-based; conditions: 50 μg/ml; 1:9 dilution of TBY medium, 6 hrs
Description: as §1, §2

[8] = 25 μg/ml, Nutrient Broth, 37° C., 12 hours

CCC/C(=C\Br)C(C)=O [Compound 122, 3-(Bromomethylene)-2-Hexanone]
growth inhibition (Staphylococcus aureus; [8]): slight growth inhibition | effect on attachment [1]: reduce the attachment | effect on bioluminescence activity [2]: significant increase

CCC(=O)/C(C)=C/Br [Compound 123, 2-(Bromomethylene)-3-Pentanone]
reduction of beta-galactosidase activity ([3]; concentration of 25ug/ml): 40% | inhibition of two-component signal transduction systems [3]: act as inhibitors | growth inhibition (Staphylococcus aureus; 10 μg/ml, Nutrient Broth, 37° C., 12 hours): slight growth inhibition | prolonged lagphase of growth (Staphylococcus aureus; [8]): 4 h | growth inhibition compared to 122 (Staphylococcus aureus; concentrations 10 and 25 μg/ml): more growth inhibitory | effect on attachment [1]: reduce the attachment | effect on bioluminescence activity [2]: significant increase | effect on growth (Porphyromonas canoris [4]): relatively insignificant effect | effect on attachment to a surface (Porphyromonas canoris [5]): significantly limits | effect on growth (Pseudomonas aeruginosa [6]): relatively insignificant effect | effect on attachment to a surface (Pseudomonas aeruginosa [7]): significantly limits

CCCCC(=CBr)C(C)=O [Compound 101, 3-(Bromomethylene)-2-Heptanone]
effect on bioluminescence activity [2]: significant increase

CC(=O)/C(C)=C/Br [Compound 80, 3-(Bromomethylene)-2-Butanone]
reduction of beta-galactosidase activity ([3]; concentration of 50 ug/ml): 75% | inhibition of two-component signal transduction systems [3]: act as inhibitors
